In general, melting point refers to the temperature of the solid-liquid transition. Usually IC50 stands for the concentration that inhibits the measured activity by half. Low readings indicate greater potency, high ones weaker potency.

Some results are limits rather than exact numbers.

The source of these data is patent US9593108B2, “Compounds and methods for antiviral treatment” (PTC Therapeutics, Inc., priority 2009, dated 2017).

In data set [1] the test system is HCV replicon RNA (GenBank Accession No. AJ242654). Nature of the data set: HCV Replicon Assay (replicon RNA reduction and/or Fluc reporter signal). Format: cell-based, Hepatitis C virus. The settings on record: Hepatitis C virus, 72 h, replicon-containing cells cultured with test compound for up to 3 days. The method in brief: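 Bicistronic replicon-containing cells cultured with compound for up to 3 days, with interferon as positive control. Inhibition quantified by replicon RNA reduction and/or Fluc reporter signal; IC50 values generally derived from replicon RNA reduction.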
Background: A replicon is a self-replicating genome or part of one, used to study replication in cells.

Compound `COc1ccc2c(n1)c(C#N)c(-c1ccc(S(=O)(=O)NC(CF)CF)cn1)n2C1CCC1` [Cpd 15, 6-(3-cyano-1-cyclobutyl-5-methoxy-1H-pyrrolo[3,2-b]pyridin-2-yl)-N-(1,3-difluoropropan-2-yl)pyridine-3-sulfonamide] displayed a melting point of 199 to 201 °C. The same compound returned an IC50 in data set [1] of 500 to 2000 nM.

On to `N#Cc1c(-c2ncc(S(=O)(=O)NC(CF)CF)cn2)n(C2CCC2)c2ncc(F)cc12` [Cpd 16, 2-(3-cyano-1-cyclobutyl-5-fluoro-1H-pyrrolo[2,3-b]pyridin-2-yl)-N-(1,3-difluoropropan-2-yl)pyrimidine-5-sulfonamide], for which the melting point is 204 to 206 °C. Moreover, in data set [1], the IC50 is 500 to 2000 nM.

Turning to `N#Cc1c(-c2ncc(S(=O)(=O)NC(CF)CF)cn2)n(C2CCCC2)c2ncc(Cl)cc12` [Cpd 17, 2-(5-chloro-3-cyano-1-cyclopentyl-1H-pyrrolo[2,3-b]pyridin-2-yl)-N-(1,3-difluoropropan-2-yl)pyrimidine-5-sulfonamide], the melting point fell in the range of 247 to 248 °C. This compound also gave a half-maximal inhibitory concentration (IC50) in data set [1] of 500 to 2000 nM.

As to `C[C@H](NS(=O)(=O)c1ccc(-c2c(C#N)c3cccnc3n2C2CCC2)nc1)C(F)(F)F` [Cpd 18, 6-(3-cyano-1-cyclobutyl-1H-pyrrolo[2,3-b]pyridin-2-yl)-N-[(2S)-1,1,1-trifluoropropan-2-yl]pyridine-3-sulfonamide], the melting point fell in the range of 183 to 185 °C. Further, the IC50 in data set [1] lay in the range of 500 to 2000 nM.

Regarding `COc1ccc2c(n1)c(C#N)c(-c1ncc(S(=O)(=O)NC(CF)CF)cn1)n2C1CCC1` [Cpd 19, 2-(3-cyano-1-cyclobutyl-5-methoxy-1H-pyrrolo[3,2-b]pyridin-2-yl)-N-(1,3-difluoropropan-2-yl)pyrimidine-5-sulfonamide], the melting point fell in the range of 241 to 243 °C. The IC50 in data set [1] lay within 2000 to 5000 nM.

`C[C@H](NS(=O)(=O)c1cnc(-c2c(C#N)c3cc(F)cnc3n2C2CCC2)nc1)C(F)(F)F` [Cpd 21, 2-(3-cyano-1-cyclobutyl-5-fluoro-1H-pyrrolo[2,3-b]pyridin-2-yl)-N-[(2S)-1,1,1-trifluoropropan-2-yl]pyrimidine-5-sulfonamide] gave a melting point of 186 to 187 °C. This compound also yielded an IC50 in data set [1] of less than 500 nM.

For the compound `COc1cnc2c(c1)c(C#N)c(-c1ncc(S(=O)(=O)N[C@@H](C)C(F)(F)F)cn1)n2C1CCC1` [Cpd 23, 2-(3-cyano-1-cyclobutyl-5-methoxy-1H-pyrrolo[2,3-b]pyridin-2-yl)-N-[(2S)-1,1,1-trifluoropropan-2-yl]pyrimidine-5-sulfonamide], the melting point lay in the range of 193 to 196 °C. The IC50 in data set [1] fell in the range of 500 to 2000 nM.

The compound `C[C@H](NS(=O)(=O)c1ccc(-c2c(C#N)c3cc(Cl)cnc3n2C2CCCC2)nc1)C(F)(F)F` [Cpd 24, 6-(5-chloro-3-cyano-1-cyclopentyl-1H-pyrrolo[2,3-b]pyridin-2-yl)-N-[(2S)-1,1,1-trifluoropropan-2-yl]pyridine-3-sulfonamide] gave a melting point of 197 to 199 °C. Moreover, the IC50 in data set [1] was less than 500 nM.

`C[C@H](NS(=O)(=O)c1cnc(-c2c(C#N)c3cc(Cl)cnc3n2C2CCCC2)nc1)C(F)(F)F` [Cpd 25, 2-(5-chloro-3-cyano-1-cyclopentyl-1H-pyrrolo[2,3-b]pyridin-2-yl)-N-[(2S)-1,1,1-trifluoropropan-2-yl]pyrimidine-5-sulfonamide]: the melting point lay in the range of 206 to 208 °C. Also, the IC50 in data set [1] is 500 to 2000 nM.

`Cc1cc2c(cn1)c(C#N)c(-c1ccc(S(=O)(=O)NC(CF)CF)cn1)n2C1CCC1` [Cpd 26, 6-(3-cyano-1-cyclobutyl-6-methyl-1H-pyrrolo[3,2-c]pyridin-2-yl)-N-(1,3-difluoropropan-2-yl)pyridine-3-sulfonamide] registered a melting point of 216 to 218 °C. In addition, the IC50 in data set [1] lay within 500 to 2000 nM.

As for `Cc1cc2c(cn1)c(C#N)c(-c1ncc(S(=O)(=O)NC(CF)CF)cn1)n2C1CCC1` [Cpd 27, 2-(3-cyano-1-cyclobutyl-6-methyl-1H-pyrrolo[3,2-c]pyridin-2-yl)-N-(1,3-difluoropropan-2-yl)pyrimidine-5-sulfonamide], the melting point lay within 234 to 236 °C. The IC50 in data set [1] is less than 500 nM.

As to `Cc1cc2c(cn1)c(C#N)c(-c1ccc(S(=O)(=O)N[C@@H](C)C(F)(F)F)cn1)n2C1CCC1` [Cpd 28, 6-(3-cyano-1-cyclobutyl-6-methyl-1H-pyrrolo[3,2-c]pyridin-2-yl)-N-[(2S)-1,1,1-trifluoropropan-2-yl]pyridine-3-sulfonamide], the melting point is 189 to 191 °C. Besides, in data set [1], the IC50 lay in the range of 2000 to 5000 nM.

As to `Cc1cc2c(cn1)c(C#N)c(-c1ccc(S(=O)(=O)N[C@H](C)C(F)(F)F)cn1)n2C1CCC1` [Cpd 29, 6-(3-cyano-1-cyclobutyl-6-methyl-1H-pyrrolo[3,2-c]pyridin-2-yl)-N-[(2R)-1,1,1-trifluoropropan-2-yl]pyridine-3-sulfonamide], the melting point is 176 to 178 °C. The IC50 in data set [1] was less than 500 nM.

Compound `Cc1cc2c(cn1)c(C#N)c(-c1ccc(S(=O)(=O)N[C@@H](C)C(F)(F)F)cc1)n2C1CCC1` [Cpd 30, 4-(3-cyano-1-cyclobutyl-6-methyl-1H-pyrrolo[3,2-c]pyridin-2-yl)-N-[(2S)-1,1,1-trifluoropropan-2-yl]benzenesulfonamide] showed a melting point of 248 to 249 °C. Besides, the IC50 in data set [1] is less than 500 nM.

In the case of `Cc1cc2c(cn1)c(C#N)c(-c1ccc(S(=O)(=O)N[C@H](C)C(F)(F)F)cc1)n2C1CCC1` [Cpd 31, 4-(3-cyano-1-cyclobutyl-6-methyl-1H-pyrrolo[3,2-c]pyridin-2-yl)-N-[(2R)-1,1,1-trifluoropropan-2-yl]benzenesulfonamide], the melting point is 247 to 249 °C. The compound further had an IC50 in data set [1] of less than 500 nM.

In turn, `Cc1cc2c(cn1)c(C#N)c(-c1ncc(S(=O)(=O)NC(C)C)cn1)n2C1CCC1` [Cpd 32, 2-(3-cyano-1-cyclobutyl-6-methyl-1H-pyrrolo[3,2-c]pyridin-2-yl)-N-(propan-2-yl)pyrimidine-5-sulfonamide] displayed a melting point of 242 to 243 °C. This compound also showed an IC50 in data set [1] of less than 500 nM.

On to `Cc1cc2c(cn1)c(C#N)c(-c1ccc(S(=O)(=O)NC(CF)CF)cc1)n2C1CCC1` [Cpd 33, 4-(3-cyano-1-cyclobutyl-6-methyl-1H-pyrrolo[3,2-c]pyridin-2-yl)-N-(1,3-difluoropropan-2-yl)benzenesulfonamide], for which the melting point is 234 to 236 °C. In data set [1], the IC50 was less than 500 nM.

Compound `N#Cc1c(-c2ccc(S(=O)(=O)NC(CF)CF)cc2)n(C2CCC2)c2ncccc12` [Cpd 34, 4-(3-cyano-1-cyclobutyl-1H-pyrrolo[2,3-b]pyridin-2-yl)-N-(1,3-difluoropropan-2-yl)benzenesulfonamide] displayed a melting point of 180 to 182 °C. This compound had a concentration for half-maximal inhibition (IC50) in data set [1] of less than 500 nM.

The compound `C[C@@H](NS(=O)(=O)c1ccc(-c2c(C#N)c3cccnc3n2C2CCC2)nc1)C(F)(F)F` [Cpd 35, 6-(3-cyano-1-cyclobutyl-1H-pyrrolo[2,3-b]pyridin-2-yl)-N-[(2R)-1,1,1-trifluoropropan-2-yl]pyridine-3-sulfonamide] had a melting point of 184 to 186 °C. The compound further showed an IC50 in data set [1] of less than 500 nM.

The compound `CC(C)NS(=O)(=O)c1cnc(-c2c(C#N)c3cccnc3n2C2CCC2)nc1` [Cpd 36, 2-(3-cyano-1-cyclobutyl-1H-pyrrolo[2,3-b]pyridin-2-yl)-N-(propan-2-yl)pyrimidine-5-sulfonamide] came in with a melting point of 197 to 199 °C. In data set [1], this compound gave an IC50 of less than 500 nM.

`CC(C)NS(=O)(=O)c1cnc(-c2c(C#N)c3cc(F)cnc3n2C2CCC2)nc1` [Cpd 37, 2-(3-cyano-1-cyclobutyl-5-fluoro-1H-pyrrolo[2,3-b]pyridin-2-yl)-N-(propan-2-yl)pyrimidine-5-sulfonamide] displayed a melting point of 207 to 209 °C. The compound also registered an IC50 in data set [1] of less than 500 nM.

`COc1ccc2c(C#N)c(-c3ccc(S(=O)(=O)N[C@@H](C)C(F)(F)F)cn3)n(C3CCC3)c2n1` [Cpd 40, 6-(3-cyano-1-cyclobutyl-6-methoxy-1H-pyrrolo[2,3-b]pyridin-2-yl)-N-[(2S)-1,1,1-trifluoropropan-2-yl]pyridine-3-sulfonamide]: the melting point was 193 to 194 °C. The same compound returned an IC50 in data set [1] of 500 to 2000 nM.

In turn, `COc1ccc2c(C#N)c(-c3ccc(S(=O)(=O)NC(CF)CF)cn3)n(C3CCC3)c2n1` [Cpd 41, 6-(3-cyano-1-cyclobutyl-6-methoxy-1H-pyrrolo[2,3-b]pyridin-2-yl)-N-(1,3-difluoropropan-2-yl)pyridine-3-sulfonamide] had a melting point of 194 to 195 °C. This compound also registered an IC50 in data set [1] of less than 500 nM.

Compound `COc1ccc2c(C#N)c(-c3ncc(S(=O)(=O)NC(CF)CF)cn3)n(C3CCC3)c2n1` [Cpd 42, 2-(3-cyano-1-cyclobutyl-6-methoxy-1H-pyrrolo[2,3-b]pyridin-2-yl)-N-(1,3-difluoropropan-2-yl)pyrimidine-5-sulfonamide] displayed a melting point of 229 to 230 °C. Besides, in data set [1], the IC50 is less than 500 nM.

The compound `COc1ccc2c(C#N)c(-c3ccc(S(=O)(=O)NC(C)(C)C)cc3)n(C3CCC3)c2n1` [Cpd 44, N-tert-butyl-4-(3-cyano-1-cyclobutyl-6-methoxy-1H-pyrrolo[2,3-b]pyridin-2-yl)benzenesulfonamide] displayed a melting point of 155 to 157 °C. Further, the IC50 in data set [1] was less than 500 nM.

Consider `Cc1ncc2c(C#N)c(-c3ccc(S(=O)(=O)N[C@@H](C)C4CC4)cn3)n(C3CCC3)c2n1` [Cpd 45, 6-(5-cyano-7-cyclobutyl-2-methyl-7H-pyrrolo[2,3-d]pyrimidin-6-yl)-N-[(1S)-1-cyclopropylethyl]pyridine-3-sulfonamide], for which the melting point fell in the range of 155 to 157 °C. Further, the IC50 in data set [1] is less than 500 nM.

As to `Cc1ncc2c(C#N)c(-c3ccc(S(=O)(=O)N[C@H](C)C(F)(F)F)cn3)n(C3CCC3)c2n1` [Cpd 46, 6-(5-cyano-7-cyclobutyl-2-methyl-7H-pyrrolo[2,3-d]pyrimidin-6-yl)-N-[(2R)-1,1,1-trifluoropropan-2-yl]pyridine-3-sulfonamide], the melting point is 166 to 168 °C. This compound also returned an IC50 in data set [1] of less than 500 nM.
